# Reference: patent EP0556660A1, “Utilisation of fatty alpha-hydroxy acids and the compositions containing them” (Beiersdorf Aktiengesellschaft, priority 1992, dated 1993)
# What was measured:
# [1] = Free Ca2+ after addition of test substance, fluorimetric with FURA 2; type: physicochemical; details: free Ca²⁺ after addition of 1 mmol (1 mM) test substance; pH 7,1; control without fatty acid 200
# Protocol: Die erfindungsgemäßen alpha-Hydroxyfettsäuren haben gegenüber Schwermetallionen, z.B. Fe²⁺ oder Erdalkali-Ionen wie Ca²⁺ eine hohe Bindungsfähigkeit, wie die folgende Untersuchung zeigt: a) Konzentration an freiem Ca²⁺ nach Zugabe von 1 mmol Testsubstanz
# (§1) Der Testpuffer (100 mM KCl, 10 mM HEPES, 1 mM EGTA 0,5 mM CaCl₂, pH 7,1) wurden mit je 1 mM der Testsubstanz versetzt. Entstehende Niederschläge wurden abfiltriert. Das Filtrat wurde mit KOH auf pH 7,1 eingestellt und mit 1 µM FURA 2 versetzt. Die Konzentration an Ca²⁺ wurde fluorimetrisch bestimmt (Anregung 340 nm, 359 nm, 380 nm, Emission 510 nm). b) Konzentration an freiem Fe²⁺ nach Zugabe von 1 mmol alpha-Hydroxypalmitinsäure
# [2] = Free Fe2+ after addition of test substance, photometric with 2,2'-Bipyridin; type: physicochemical; details: 1 mmol test substance mixed with 1 mmol Fe²⁺
# Protocol: as §1
# 1 mmol Testsubstanz wurde mit 1 mmol Fe²⁺ versetzt. Entstehende Niederschläge wurden abfiltriert. Die Filtrate wurden mit 2,2'-Bipyridin versetzt und bei 565 nm photometrisch vermessen.
# [3] = system: Acinetobacter calcoaceticus; test: Minimal inhibitory concentration; type: cell-based; details: 72 h incubation
# Protocol: (§2) Bestimmung der minimalen Hemmkonzentration Eine frische Übernachtkultur des Testorganismus wurde 1:10⁴ in Nährmedium (5 g/ltr Tryptone, 3 g/ltr Hefeextrakt, pH 7,0) verdünnt und 3h inkubiert (30° C, 250 rpm). Anschließend wurde alpha-Hydroxy-palmitinsäure (D) in einer Endkonzentration von 2,0%; 1,5%; 1,0%; 0,75%; 0,5%; 0,25%; 0,1% und 0,06% zugegeben. Nach 72 h Inkubationszeit wurden der Bakterientiter durch Verdünnung und Ausplattierung überprüft. Bei den Ansätzen, bei denen keine Bakterien nachweisbar waren, wurde 1 ml des Ansatzes mit 9 ml Nährmedium versetzt und über Nacht inkubiert (30° C, 250 rpm). […]
# Corynebacterium xerosis = test: Minimal inhibitory concentration; type: cell-based; details: 72 h incubation
# Protocol: as §2
# Escherichia coli = test: Minimal inhibitory concentration; type: cell-based; details: 72 h incubation
# Protocol: as §2
# Klebsiella pneumoniae = test: Minimal inhibitory concentration; type: cell-based; details: 72 h incubation
# Protocol: as §2
# Micrococcus luteus = test: Minimal inhibitory concentration; type: cell-based; details: 72 h incubation
# Protocol: as §2
# Pseudomonas aeruginosa = test: Minimal inhibitory concentration; type: cell-based; details: 72 h incubation
# Protocol: as §2
# Pseudomonas putida = test: Minimal inhibitory concentration; type: cell-based; details: 72 h incubation
# Protocol: as §2
# Salmonella livingstone = test: Minimal inhibitory concentration; type: cell-based; details: 72 h incubation
# Protocol: as §2
# [4] = system: Staphylococcus epidermidis; test: Minimal inhibitory concentration; type: cell-based; details: 72 h incubation
# Protocol: as §2
SMILES,Konz. Ca²⁺ [1] [nmol],Konz. Fe²⁺ [2] [µmol],further results
O=C(O)CC(O)(CC(=O)O)C(=O)O [Citronensäure],139,110,–
"CCCCCCCCCCCCCC[C@@H](O)C(=O)O [alpha-OH-Hexadecansäure (D), alpha-Hydroxy-hexadecansäure]",–,–,"Minimale Hemmkonzentration [3]: 0,75%; Minimale Hemmkonzentration (Corynebacterium xerosis): 0,10%; Minimale Hemmkonzentration (Escherichia coli): 0,50%; Minimale Hemmkonzentration (Klebsiella pneumoniae): 0,50%; Minimale Hemmkonzentration (Micrococcus luteus): 0,25%; Minimale Hemmkonzentration (Pseudomonas aeruginosa): 0,25%; Minimale Hemmkonzentration (Pseudomonas putida): 0,10%; Minimale Hemmkonzentration (Salmonella livingstone): 0,50%; Minimale Hemmkonzentration [4]: 0,10%"
O=C(O)CN(CCN(CC(=O)O)CC(=O)O)CC(=O)O [EDTA],25,–,–
CCCCCCCCCCCCCC(=O)O [Myristinsäure],233,–,–
CCCCCCCCCCCCCCC(O)C(=O)O (stereo not drawn) [alpha-Hydroxypalmitinsäure],38,20,–
O=C(O)C(O)c1ccccc1 (stereo not shown) [Mandelsäure],200,100,–
CCCCCCCCCCCCCCCC(=O)O [Palmitinsäure],249,–,–
CCCCCCCCCCCCC(O)C(=O)O (stereo not drawn) [alpha-Hydroxy-myristinsäure],32,–,–
